Measurements published in patent publication US10584114B2, “Inhibitors of RET” (BLUEPRINT MEDICINES CORPORATION, priority 2015, dated 2020).

Legend:
[1] = target: RET V804L (Homo sapiens (Human), UniProt P07949, V804L); assay: RET V804L Gatekeeper Mutant Assay at KM (Caliper electrophoretic mobility shift); assay type: biochemical; settings: 10 μM ATP, 25° C., 120 minutes
[2] = target: wild type RET (Homo sapiens (Human), UniProt P07949); assay: RET Wild Type Assay at KM (Caliper electrophoretic mobility shift); assay type: biochemical; settings: 25 μM ATP, 25° C., 120 minutes
Sequence of wild type RET (P07949 658-1114): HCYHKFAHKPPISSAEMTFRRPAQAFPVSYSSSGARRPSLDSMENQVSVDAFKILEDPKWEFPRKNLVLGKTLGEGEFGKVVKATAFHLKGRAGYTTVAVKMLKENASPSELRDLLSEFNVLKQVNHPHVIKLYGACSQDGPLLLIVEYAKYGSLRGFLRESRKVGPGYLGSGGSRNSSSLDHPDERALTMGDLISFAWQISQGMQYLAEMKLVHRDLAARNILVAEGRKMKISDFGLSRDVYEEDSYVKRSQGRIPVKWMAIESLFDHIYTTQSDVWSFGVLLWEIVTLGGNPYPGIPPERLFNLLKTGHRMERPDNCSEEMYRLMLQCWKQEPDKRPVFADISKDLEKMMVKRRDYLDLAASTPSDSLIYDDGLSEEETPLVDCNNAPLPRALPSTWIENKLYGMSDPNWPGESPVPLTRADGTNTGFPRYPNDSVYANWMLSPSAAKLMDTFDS

Sequence of RET V804L (P07949 658-1114 V804L): as the sequence (P07949 658-1114) above, with V147L counted along it

| IC50 [1] | IC50 [2] | SMILES |
| --- | --- | --- |
| < 0.01 µM | < 0.01 µM | CO[C@]1(C(=O)N[C@@H](C)c2cnc(-n3cc(F)cn3)cn2)CC[C@H](c2nc(C)cc(Nc3cc(C)[nH]n3)n2)CC1 [Compound 131] |
| < 0.01 µM | < 0.01 µM | CCO[C@]1(C(=O)N[C@@H](C)c2ccc(-n3cc(F)cn3)nc2)CC[C@H](c2nc(C)cc(Nc3cc(C)[nH]n3)n2)CC1 [Compound 136] |
| > 0.1 µM | > 0.1 µM | CO[C@]1(C(=O)N[C@@H](C)c2ccc(-n3cc(F)cn3)nc2)CC[C@](O)(c2cc(C)cc(Nc3cc(C)[nH]n3)n2)CC1 [Compound 137] |
| < 0.01 µM | < 0.01 µM | CO[C@]1(C(=O)N[C@@H](C)c2ccc(-n3cc(F)cn3)nc2)CC[C@@](O)(c2cc(C)cc(Nc3cc(C)[nH]n3)n2)CC1 [Compound 138] |
| < 0.01 µM | < 0.01 µM | Cc1cc(Nc2cc(C)[nH]n2)nc(C2=CCC(C(=O)N[C@@H](C)c3ccc(-n4cc(F)cn4)nc3)CC2)n1 (stereo partly shown) [Compound 144] |
| < 0.01 µM | < 0.01 µM | Cc1cc(Nc2cc(C)[nH]n2)nc([C@]2(O)CC[C@@H](C(=O)N[C@@H](C)c3ccc(-n4cc(F)cn4)nc3)OC2)c1 [Compound 146] |
| < 0.01 µM | < 0.01 µM | CO[C@]1(C(=O)NCc2cnc(-n3cc(F)cn3)cn2)CC[C@H](c2nc(C)cc(Nc3cc(C)[nH]n3)n2)CC1 [Compound 150] |

The remaining lines, values behind:

| SMILES | IC50 [1] | IC50 [2] |
| --- | --- | --- |
| Cc1cc(Nc2cc(C)[nH]n2)nc([C@H]2CC[C@@H](C(=O)NCc3ccc(-n4cccn4)nc3)CC2)n1 [Compound 100] | > 0.1 µM | > 0.1 µM |
| Cc1cc(Nc2cc(C)[nH]n2)nc([C@H]2CC[C@H](C(=O)NCc3ccc(-n4cccn4)nc3)CC2)n1 [Compound 101] | < 0.01 µM | < 0.01 µM |
| Cc1cc(Nc2cc(C)[nH]n2)nc([C@H]2CC[C@@H](C(=O)N[C@@H](C)c3ccc(-n4cccn4)nc3)CC2)n1 [Compound 102] | > 0.1 µM | > 0.1 µM |
| Cc1cc(Nc2cc(C)[nH]n2)nc([C@H]2CC[C@H](C(=O)N[C@@H](C)c3ccc(-n4cccn4)nc3)CC2)n1 [Compound 103] | < 0.01 µM | < 0.01 µM |
| Cc1cc(Nc2cc(C)[nH]n2)nc([C@@H]2CC[C@@H](C(=O)NCc3ccc(-n4cccn4)nc3)[C@@H](C)C2)n1 [Compound 104] | > 0.1 µM | > 0.1 µM |
| Cc1cc(Nc2cc(C)[nH]n2)nc([C@H]2CC[C@H](C(=O)NCc3ccc(-n4nc(C)cc4C)nc3)CC2)n1 [Compound 106] | 0.01 to 0.1 µM | < 0.01 µM |
| Cc1cc(Nc2cc(C)[nH]n2)nc([C@@]2(O)CC[C@H](C(=O)NCc3ccc(-n4cccn4)nc3)[C@H](C)C2)c1 [Compound 107] | < 0.01 µM | < 0.01 µM |
| Cc1cc(Nc2cc(C)[nH]n2)nc([C@H]2CC[C@H](C(=O)NCc3ccc(-n4cc(Cl)cn4)nc3)CC2)n1 [Compound 113] | < 0.01 µM | < 0.01 µM |
| Cc1cc(Nc2cc(C)[nH]n2)nc([C@]2(O)CC[C@@H](C(=O)NCc3ccc(-n4cccn4)nc3)C(C)(C)C2)c1 [Compound 114] | < 0.01 µM | < 0.01 µM |
| Cc1cc(Nc2cc(C)[nH]n2)nc([C@@H]2CC[C@@H](C(=O)N[C@@H](C)c3ccc(-n4cc(F)cn4)nc3)[C@@H](C)C2)n1 [Compound 116] | 0.01 to 0.1 µM | > 0.1 µM |
| Cc1cc(Nc2cc(C)[nH]n2)nc([C@]2(O)CC[C@H](C(=O)N[C@@H](C)c3ccc(-n4cc(F)cn4)nc3)CC2)c1 [Compound 119] | > 0.1 µM | > 0.1 µM |
| Cc1cc(Nc2cc(C)[nH]n2)nc([C@]2(O)CC[C@@H](C(=O)N[C@@H](C)c3ccc(-n4cc(F)cn4)nc3)CC2)c1 [Compound 120, (1s,4R)—N—((S)-1-(6-(4-fluoro-1H-pyrazol-1-yl)pyridin-3-yl)ethyl)-4-hydroxy-4-(4-methyl-6-(5-methyl-1H-pyrazol-3-ylamino)pyridin-2-yl)cyclohexanecarboxamide] | < 0.01 µM | < 0.01 µM |
| Cc1cc(Nc2cc(C)[nH]n2)nc([C@@H]2CC[C@@H](C(=O)N[C@@H](C)c3ccc(-n4cc(F)cn4)nc3)C(C)(C)C2)n1 [Compound 124] | 0.01 to 0.1 µM | > 0.1 µM |
